We go through 16 compounds from patent EP3858342A1, “ACYLHYDRAZONES FOR THE TREATMENT OF NEUROLOGICAL DISEASES” (Consejo Superior de Investigaciones Científicas (CSIC), priority 2018, dated 2020).

The structures appear in SMILES notation. “Also recorded” adds a separate entry of the source. Like-named read-outs stand apart in the source and are kept apart here.

In one assay the target is T1, dNCS-1 (Drosophila melanogaster, UniProt Q9VWX8).
T1 sequence (Q9VWX8 1-187): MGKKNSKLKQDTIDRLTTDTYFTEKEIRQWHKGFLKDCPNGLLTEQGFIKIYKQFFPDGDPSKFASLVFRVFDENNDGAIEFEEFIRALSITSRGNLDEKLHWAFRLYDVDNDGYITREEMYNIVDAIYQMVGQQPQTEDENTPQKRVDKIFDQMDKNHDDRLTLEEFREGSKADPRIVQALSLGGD
As to the kind of experiment: Affinity for dNCS-1 by fluorescence spectroscopy. The format is binding. As to conditions: for affinity in the fluorescence technique: additional fluorescence studies, result in words. An excerpt: The protein complex formed by NCS-1 and Ric8 regulates the number of synapses and neurotransmitter release probability, so it is considered a good therapeutic target for the treatment of diseases in which the synapse is impaired. Based on fluorescence spectroscopy studies, the affinity of compounds for dNCS-1 (neuronal calcium sensor of Drosophila) has been proven. Neuronal calcium sensor NCS-1 is a protein the sequence of which is conserved from yeasts to humans.
The affinity of the compounds for dNCS-1 was measured by means of the fluorescence spectroscopy technique. The emission intensity of the complex is analyzed, where the signal is monitored at increasing concentrations of ligand (1:0 to 1:30 equivalents), keeping the protein concentration […], 30.8 µM, 1 eq.) constant. The affinity constant is thereby obtained through the apparent disassociation constant. […] The experiments are performed at 5°C with dNCS-1 in 50 mM Tris buffer, pH 7.9, 125 mM NaCl, 0.5 mM CaCl2 with 5% DMSO in a total volume of 300 µL. The experiment is performed at the excitation wavelength of 295 nm and at the emission wavelength of 345 nm (maximum emission) depending on the compound in a Jobin Yvon Floromax4 spectrofluorometer equipped with a Peltier Thermostat; the obtained values are the result of the normalized average of the three repetitions for each measurement. […] The affinity constants found for the tested compounds are as follows: […]

For the next assay, the target named is T2, NCS-1/Ric8a interaction (Homo sapiens, UniProt P62166).
T2 construct: expressed in transfected cells; host or cells: HEK293
T2 sequence (P62166 2-190 limits assumed): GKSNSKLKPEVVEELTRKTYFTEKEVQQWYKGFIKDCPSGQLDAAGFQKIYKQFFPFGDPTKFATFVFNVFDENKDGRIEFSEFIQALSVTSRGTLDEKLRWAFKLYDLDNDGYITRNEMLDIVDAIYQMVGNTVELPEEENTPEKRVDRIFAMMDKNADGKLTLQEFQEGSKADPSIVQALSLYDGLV
T2 sequence (Q9NPQ8 whole entry partner): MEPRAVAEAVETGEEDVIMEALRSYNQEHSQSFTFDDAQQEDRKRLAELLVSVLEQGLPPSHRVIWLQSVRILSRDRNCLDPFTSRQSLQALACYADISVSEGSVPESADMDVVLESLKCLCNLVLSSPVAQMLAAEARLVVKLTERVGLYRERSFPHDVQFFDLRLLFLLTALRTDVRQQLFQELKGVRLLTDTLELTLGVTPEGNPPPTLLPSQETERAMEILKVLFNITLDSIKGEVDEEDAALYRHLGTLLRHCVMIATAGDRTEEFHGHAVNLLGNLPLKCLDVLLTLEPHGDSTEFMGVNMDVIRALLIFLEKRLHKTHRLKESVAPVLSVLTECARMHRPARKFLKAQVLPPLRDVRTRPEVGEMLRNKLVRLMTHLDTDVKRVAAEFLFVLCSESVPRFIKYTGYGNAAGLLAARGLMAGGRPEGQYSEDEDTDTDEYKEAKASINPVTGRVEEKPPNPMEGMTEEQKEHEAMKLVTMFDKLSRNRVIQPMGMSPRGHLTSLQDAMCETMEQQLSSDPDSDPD
As to the kind of experiment: Co-immunoprecipitation assay of NCS-1/Ric8a interaction in transfected HEK293 cells. Conditions: for modulatory activity: stated as the reason for modelling the compounds in Drosophila Frq2, underlying test not specified; for NCS-1/Ric8a interaction: HEK293 cells transfected with human Ric8a (V5 tag) and NCS1, IP with anti-NCS1, Western blot with anti-V5, DMSO lane = baseline. The format is cell-based. As to the method:
To identify compounds useful as modulators of the protein complex formed by NCS-1 and Ric8 (specifically as compounds useful for promoting NCS-1/Ric8a interaction), the experiment shown in Figure 1 was carried out. […] The DMSO lane represents baseline levels of NCS1/Ric8a interaction. IP was performed with anti-NCS1 antibodies, followed by the immunodetection of Ric8a in Western blot with the anti-V5 antibody.
(§1) • Figure 1. […] The DMSO lane represents […]. • Figure 2. […] The curves were fitted considering a stoichiometry of 1:1. For correct curve comparison, intensities were normalized and depicted as (I0 - I)/I0. X. The value of r^2 is 0.998. • Figure 3. […] The residues in which sequence differences are found are shown in pink. • Figure 4. These three figures show the pharmacophore group taking the compound A3H3 as an example. Specifically, groups A1, A2, and N6 (N) refer to the heteroatoms forming the central part of acylhydrazone commonly found in all the assayed compounds, in other words, the carbonyl (A1) bound to the N of amide (N6), which is in turn bound to another imine N (A2). The terms R7 (R) and R8 (R') refer to the aromatic rings which act as substituents. Both the carbonyl-bound R and the imine N-bound R are aromatic • Figure 5. […] Evaluation of the efficacy of compound A3H3 in a model for Huntington's disease. Wild-type mice WT and transgenic mice (HD) expressing exon 1 of human huntingtin (strain R6/1) were treated orally with compound A3H3 at a dose of 25 mg/kg. The treatment started at 3 months of age and lasted for 6 weeks. As a measurement of motor coordination, stride length (A) and the stay time on Rotarod (B) were analyzed.
In order to evaluate the capacity of the compounds of the invention, A3H3, A5H2, and A3H4, for modulating interaction between human NCS-1 and Ric8as, HEK293 cells were transfected with a version of epitope V5-labeled Ric8a (Ric8a-V5) and NCS-1, performing cell incubation and then cell lysis with the product to be assayed. The amount of NCS-1-bound Ric8a-V5 was then assessed by means of the immunoprecipitation technique.
On the technique in general: In western blotting, separated proteins are transferred to a membrane and probed.

Assay [1] deals with flies overexpressing human aβ42arc (D42Gal4> aβ42arc). Briefly: Number of synapses in a Drosophila melanogaster model for Alzheimer's disease. As to conditions: flies fed with 100 µM throughout the entire life cycle; adult abdominal motor neurons of 20 days; nc82-positive points, confocal images; vs DMSO. Format: in vivo. As for the experimental part:
It has been described above that the expression of the human aβ42arc peptide (Arctic mutation) in motor neurons leads to a reduction in the number of synapses with respect to normal neuromuscular junctions in individuals of the same age, therefore, flies overexpressing human aβ42arc (D42Gal4> aβ42arc) were fed with 100 µM compound A3H3 or with the same amount of solvent, DMSO, throughout the entire life cycle. Adult abdominal motor neurons of 20 days were analyzed and the number of synapses (nc82-positive points) was determined in different flies using confocal images.

The subject of assay [2] is transgenic mice (HD) expressing exon 1 of human huntingtin (strain R6/1). Briefly: Motor coordination in a mouse model for Huntington's disease. The format is in vivo. As to conditions: oral, 25 mg/kg, start at 3 months of age, after 6 weeks, significant differences with respect to the rest of groups.
Text: as §1

The subject of assay [3] is Flies overexpressing aβ42arc (D42Gal4> aβ42arc) in their motor neurons. As to the kind of experiment: Locomotor activity in a Drosophila melanogaster model for Alzheimer's disease (Drosophila activity monitors). As to conditions: D42Gal4> aβ42arc flies fed 100 µM; total number of beam breaks per hour, two consecutive days; vs DMSO. Format: in vivo. As for the experimental part: As mentioned, overexpression of the human aβ42arc peptide in the motor neurons of Drosophila melanogaster causes synapse loss and this correlates with a severe locomotor dysfunction. Flies overexpressing aβ42arc (D42Gal4> aβ42arc) in their motor neurons or overexpressing the control (D42Gal4> LacZ) were fed with compound A3H3 at a concentration of 100 µM or with DMSO using the same concentration. Fly locomotor activity was recorded in Drosophila activity monitors (DAM2, Trikinetics) and the total number of beam breaks per hour was analyzed for two consecutive days.

The mark [4] stands for this setting: apparent dissociation constant, 5°C, 50 mM Tris buffer pH 7.9, 125 mM NaCl, 0.5 mM CaCl2, 5% DMSO, excitation 295 nm, emission 345 nm, three repetitions, read-out: Kd.

Consider `O=C(N/N=C/c1cc(F)ccc1[N+](=O)[O-])c1ccco1` [A7H2, (E)-N'-(5-fluoro-2-nitrobenzylidene)furan-2-carbohydrazide], for which the Kd on dNCS-1 (setting [4]) is 25 ± 4 µM. On NCS-1/Ric8a interaction, the modulatory activity entry is on record as “exhibited modulatory activity”.

Regarding `O=C(NN=Cc1ccc(Cl)c([N+](=O)[O-])c1)c1cccs1` (mixture of isomers) [A5H8, (E/Z)-N'-(4-chloro-3-nitrobenzylidene)thiophene-2-carbohydrazide], the Kd on dNCS-1 was found to be 19 ± 8 µM.

For `O=C(NN=Cc1ccc(Cl)c([N+](=O)[O-])c1)C(O)c1ccccc1` (stereo not drawn) [A5H6], the Kd on dNCS-1 (setting [4]) worked out at 3.2 ± 0.3 µM. In addition, on NCS-1/Ric8a interaction, the modulatory activity entry was “exhibited modulatory activity”.

As to `O=C(NN=Cc1ccc2ccccc2c1[N+](=O)[O-])c1cccs1` [A4H8], the “affinity in the fluorescence technique” value on dNCS-1 is recorded as “without yielding any positive results”.

For `O=C(N/N=C\c1ccc([N+](=O)[O-])c(O)c1)c1ccc(Cl)s1` [A3H18, (Z)-5-chloro-N'-(3-hydroxy-4-nitrobenzylidene)thiophene-2-carbohydrazide], the NCS-1/Ric8a interaction entry at NCS-1/Ric8a interaction is “promoted NCS-1/Ric8a interaction”.

Regarding `CC(C)(C)c1ccc(C(=O)N/N=C/c2ccc([N+](=O)[O-])c(O)c2)cc1` [A3H17, (E)-4-(tert-butyl)-N'-(3-hydroxy-4-nitrobenzylidene)benzohydrazide], the NCS-1/Ric8a interaction entry at NCS-1/Ric8a interaction is “promoted NCS-1/Ric8a interaction”.

Turning to `O=C(N/N=C/c1cc([N+](=O)[O-])ccc1F)c1ccco1` [A8H2, (E)-N'-(2-fluoro-5-nitrobenzylidene)furan-2-carbohydrazide], at dNCS-1 (setting [4]), the Kd was 7 ± 1 µM. Moreover, on NCS-1/Ric8a interaction, the NCS-1/Ric8a interaction entry was “promoted NCS-1/Ric8a interaction”.

As to `O=C(NN=Cc1ccc2ccccc2c1[N+](=O)[O-])C(O)c1ccccc1` (stereo not drawn) [A4H6], the “affinity in the fluorescence technique” value on dNCS-1 is reported as “without yielding any positive results”.

In the case of `COCCC(=O)N/N=C/c1ccc([N+](=O)[O-])c(O)c1` [A3H4, (E)-N'-(3-hydroxy-4-nitrobenzylidene)-3-methoxypropanehydrazide], at NCS-1/Ric8a interaction, the NCS-1/Ric8a interaction result was “allows interaction with Ric8-a”.

As to `O=C(N/N=C\c1ccc(Cl)c([N+](=O)[O-])c1)c1ccco1` [A5H2, (Z)-N'-(4-chloro-3-nitrobenzylidene)furan-2-carbohydrazide], at dNCS-1 (setting [4]), the Kd is 3.2 ± 0.3 µM. Besides, at NCS-1/Ric8a interaction, the NCS-1/Ric8a interaction entry is reported as “allows interaction with Ric8-a; also recorded: promoted NCS-1/Ric8a interaction”.

Take `O=C(Cc1c[nH]c2ccccc12)NN=Cc1ccc2ccccc2c1[N+](=O)[O-]` [A4H3]: at dNCS-1, the “affinity in the fluorescence technique” value is given as “without yielding any positive results”.

On to `O=C(NN=Cc1ccc([N+](=O)[O-])c(O)c1)C(O)c1ccccc1` (racemic) [A3H6, (±)-(E/Z)-2-hydroxy-N'-(3-hydroxy-4-nitrobenzylidene)-2-phenylacetohydrazide], for which the NCS-1/Ric8a interaction result on NCS-1/Ric8a interaction is “promoted NCS-1/Ric8a interaction”.

For the compound `O=C(NN=Cc1cc(F)ccc1[N+](=O)[O-])c1cccs1` (mixture of isomers) [A7H8, (E/Z)-N'-(5-fluoro-2-nitrobenzylidene)thiophene-2-carbohydrazide], on dNCS-1 (setting [4]), the Kd was 4 ± 1 µM.

With `O=C(Cc1c[nH]c2ccccc12)NN=Cc1ccc([N+](=O)[O-])c(O)c1` (mixture of isomers) [A3H3, (E/Z)-N'-(3-hydroxy-4-nitrobenzylidene)-2-(1H-indol-3-yl)acetohydrazide], at dNCS-1 (setting [4]), the Kd was 43 ± 6 µM. The “increase of the binding of NCS-1 with Ric8a” value at NCS-1/Ric8a interaction (HEK293 cells transfected with Ric8a-V5 and NCS-1, amount of NCS-1-bound Ric8a-V5 by immunoprecipitation) is listed as “more than two fold”. Besides, at NCS-1/Ric8a interaction, the NCS-1/Ric8a interaction entry is on record as “allows interaction with Ric8-a; also recorded: promoted NCS-1/Ric8a interaction” and the modulatory activity entry was “exhibited modulatory activity”. Besides, in assay [1], the “pathological reduction of the synapse count” value was “greatly suppressed”. Also, in assay [2], the “stay time on Rotarod” value was “the same cannot be said” and the stride length entry is “the same cannot be said”. Besides, the “locomotor impairment due to overexpression of aβ42arc” value in assay [3] is “thoroughly improved”.

Consider `O=C(N/N=C/c1ccc([N+](=O)[O-])c(O)c1)c1ccco1` [A3H2, (E)-N'-(3-hydroxy-4-nitrobenzylidene)furan-2-carbahydrazide], for which the Kd at dNCS-1 (setting [4]) is 32 ± 2 µM.

In the case of `O=C(NN=Cc1ccc([N+](=O)[O-])c(O)c1)c1cc2ccccc2cc1O` (mixture of isomers) [A3H19, (E/Z)-3-hydroxy-N'-(3-hydroxy-4-nitrobenzylidene)-2-naphthohydrazide], the NCS-1/Ric8a interaction entry at NCS-1/Ric8a interaction is on record as “promoted NCS-1/Ric8a interaction”.
